In PMC5786306, “An AKAP-Lbc-RhoA interaction inhibitor promotes the translocation of aquaporin-2 to the plasma membrane of renal collecting duct principal cells” (PLoS ONE, 2018):

Tested on: AQP2 insertion into the plasma membrane of IMCD cells
Test: Biotinylation of cell surface proteins
Assay type: cell-based, rat
Conditions: Scaff10-8 30 μM, 1 or 24 h, forskolin 30 μM, 30 min
Procedure: The assay was performed according to Bogum et al.. IMCD cells were treated with Scaff10-8 at a concentration of 30 μM for 1 or 24 h (0.3% DMSO final concentration). DMSO (0.3%) was used as a control for the 24 h of incubation. Cells were stimulated with forskolin (30 min, 30 μM). Cells were washed twice with ice-cold PBS and incubated with biotinylation buffer (500 μg Biotin per well; 10 mM triethanolamine; 150 mM NaCl; 1 mM MgCl2; 0.1 mM CaCl2; pH 8.0) for 60 min at 4°C. After two washing steps with biotinylation buffer, cells were incubated for 10 min with quenching buffer (50 mM NH4Cl in PBS) at 4°C. Lysates were prepared using biotinylation lysis buffer 1 (SLB; 0.5% Triton X-100; 0.2% BSA; Complete mini EDTA-free). Lysates were sonicated and incubated for 20 min at 37°C. Cell debris was removed by centrifugation (30 min, 15,000x g, 4°C). Lysates were incubated with 80 μl streptavidin agarose beads at 4°C overnight. Beads were washed three times with biotinylation lysis buffer 1 and 2 (SLB; 0.5% Triton X-100; Complete mini EDTA-free). Proteins were eluted using sample buffer and analyzed by Western blotting.
(A) IMCD cells were treated with either compound (30 μM) or DMSO for 1 or 24 h. Membrane proteins were biotinylated followed by precipitation with streptavidin agarose beads. […] (B) Signals from A were quantified by densitometric analysis. […]

**Q.** How did the “insertion of AQP2 into the plasma membrane” value turn out when `COc1ccc(-c2coc3cc4oc(=O)c(CCC(=O)O)c(C)c4cc23)cc1` [Scaff10-8, 3-[3-(4-Methoxyphenyl)-5-methyl-7-oxo-furo[3,2-g]chromen-6-yl] propanoic acid] was run?
**A.** Its value is “does not promote the insertion of AQP2”.
